Read-outs that look alike come from different tables or passages of the source.
Legend:
Type in all cases: biochemical
TYK2 = TYK2 (Homo sapiens (Human), UniProt P29597); experiment: JAK Caliper Enzyme Assay at 1 mM ATP, TYK2
Experimental: (§1) Compounds of the invention were evaluated by in vitro methods to determine their respective ability to inhibit the JAK kinases (TYK2, JAK1, JAK2, JAK3).
(§2) The human JAK inhibitory activity was determined by using a microfluidic assay to monitor phosphorylation of a synthetic peptide by the recombinant human kinase domain of each of the four members of the JAK family, JAK1, JAK2, JAK3 and TYK2. […] Each assay condition was optimized for enzyme concentration and room temperature incubation time to obtain a conversion rate of 20% to 30% phosphorylated peptide product. Reactions were terminated by the addition of stop buffer containing EDTA. Utilizing the LabChip 3000 mobility shift technology (Caliper Life Science), each assay reaction was sampled to determine the level of phosphorylation. This technology is separation-based, allowing direct detection of fluorescently labeled substrates and products. Separations are controlled by a combination of vacuum pressure and electric field strength optimized for each peptide substrate.
(§3) JAK Caliper Enzyme Assay at 1mM ATP
(§4) Compounds were added to a 384-well plate.
(§5) The data was collected using the HTS Well Analyzer software from Caliper Life Sciences. The data output for data analysis is the percent product converted calculated on peak height (Equation 1). % product converted=100*((product)/(product+substrate)) Equation 1: […]
(§6) The percent effect at each compound concentration was calculated based on the positive and negative control well contained within each assay plate (Equation 2). […] The negative control wells contained DMSO alone (at the same concentration as the compound wells) that was used to set the baseline activity in the assay (i.e., uninhibited JAK1, JAK2, JAK3 or TYK2). % effect=100*([…](positive control-negative control)) Equation 2: […]
(§7) The percent effect was plotted against the compound concentration compound.

JAK1 = JAK1 (Homo sapiens (Human), UniProt P23458); experiment: JAK Caliper Enzyme Assay at 1 mM ATP, JAK1
Experimental: as §1, §2, §3, §4, §5, §6, §7

JAK2 = JAK2 (Homo sapiens (Human), UniProt O60674); experiment: JAK Caliper Enzyme Assay at 1 mM ATP, JAK2
Experimental: as §1, §2, §3, §4, §5, §6, §7

JAK3 = JAK3 (Homo sapiens (Human), UniProt P52333); experiment: JAK Caliper Enzyme Assay at 1 mM ATP, JAK3
Experimental: as §1, §2, §3, §4, §5, §6, §7

Sequence of JAK1 (P23458 875-1153): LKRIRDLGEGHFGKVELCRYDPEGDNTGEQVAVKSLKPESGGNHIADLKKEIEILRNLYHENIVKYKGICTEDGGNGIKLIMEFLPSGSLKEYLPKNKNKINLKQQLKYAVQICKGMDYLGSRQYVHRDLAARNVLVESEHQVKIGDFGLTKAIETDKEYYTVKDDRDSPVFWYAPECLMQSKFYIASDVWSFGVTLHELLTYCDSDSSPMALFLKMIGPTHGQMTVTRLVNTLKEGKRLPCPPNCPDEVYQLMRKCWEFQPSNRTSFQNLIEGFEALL
Sequence of JAK3 (P52333 822-1111): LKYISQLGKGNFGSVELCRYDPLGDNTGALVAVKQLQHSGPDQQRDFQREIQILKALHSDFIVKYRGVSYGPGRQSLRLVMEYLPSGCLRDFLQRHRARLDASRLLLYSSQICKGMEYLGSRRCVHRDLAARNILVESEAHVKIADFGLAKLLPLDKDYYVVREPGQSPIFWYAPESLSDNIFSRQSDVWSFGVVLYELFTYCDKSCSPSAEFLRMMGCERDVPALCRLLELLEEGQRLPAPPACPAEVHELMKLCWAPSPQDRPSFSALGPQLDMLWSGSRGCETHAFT
Sequence of JAK2 (O60674 849-1124): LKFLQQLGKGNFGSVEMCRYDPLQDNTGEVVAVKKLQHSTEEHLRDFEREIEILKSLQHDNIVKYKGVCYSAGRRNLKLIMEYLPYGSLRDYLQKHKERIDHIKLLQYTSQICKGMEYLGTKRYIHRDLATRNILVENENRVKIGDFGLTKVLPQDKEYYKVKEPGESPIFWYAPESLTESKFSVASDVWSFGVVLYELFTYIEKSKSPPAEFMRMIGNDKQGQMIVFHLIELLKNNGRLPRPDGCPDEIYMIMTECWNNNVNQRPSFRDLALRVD
Sequence of TYK2 (P29597 897-1176): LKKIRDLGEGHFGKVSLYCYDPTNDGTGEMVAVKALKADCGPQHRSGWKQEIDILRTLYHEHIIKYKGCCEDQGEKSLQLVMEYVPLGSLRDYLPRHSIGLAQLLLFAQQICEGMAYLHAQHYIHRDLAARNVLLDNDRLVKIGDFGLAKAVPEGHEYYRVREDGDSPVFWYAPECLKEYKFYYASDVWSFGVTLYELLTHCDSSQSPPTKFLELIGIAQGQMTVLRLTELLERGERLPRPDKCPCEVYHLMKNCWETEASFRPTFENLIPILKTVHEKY

| SMILES | IC50 (TYK2) | IC50 (JAK1) | IC50 (JAK2) | IC50 (JAK3) | IC50 (TYK2; JAK Caliper enzyme assay) | IC50 (JAK1; JAK Caliper enzyme assay) | IC50 (JAK2; JAK Caliper enzyme assay) | IC50 (JAK3; JAK Caliper enzyme assay) |
| --- | --- | --- | --- | --- | --- | --- | --- | --- |
| N#CC[C@]1(n2ncc(-c3cc(-c4cnc(N)cn4)cc4ncccc34)n2)C[C@@H](C#N)C1 [Example 398, cis-3-{4-[7-(5-aminopyrazin-2-yl)quinolin-5-yl]-2H-1,2,3-triazol-2-yl}-3-(cyanomethyl)cyclobutanecarbonitrile] |  |  |  |  | 204 nM | 1900 nM | 1040 nM | > 10000 nM |
| N#CC[C@]1(n2ncc(-c3cc(-c4cncc(N)n4)cc4ncccc34)n2)C[C@H](C#N)C1 [Example 397, trans-3-{4-[7-(6-aminopyrazin-2-yl)quinolin-5-yl]-2H-1,2,3-triazol-2-yl}-3-(cyanomethyl)cyclobutanecarbonitrile] |  |  |  |  |  | > 10000 nM | 8950 nM | > 10000 nM |
| Cn1ncc(-c2cc(-c3cnn([C@]4(CC#N)C[C@@H](C#N)C4)n3)c3cccnc3c2)c1C(N)=O [Example 335, 4-(5-{2-[trans-3-cyano-1-(cyanomethyl)cyclobutyl]-2H-1,2,3-triazol-4-yl}quinolin-7-yl)-1-methyl-1H-pyrazole-5-carboxamide] | 5270 nM |  | > 10000 nM |  |  |  |  |  |
| N#CCC1(n2ccc(-c3nc(-c4cnn(C5CCCCO5)n4)cc4ncccc34)n2)CN(CC(F)(F)F)C1 (stereo not drawn) [Example 155, [3-(3-{7-[2-(tetrahydro-2H-pyran-2-yl)-2H-1,2,3-triazol-4-yl]-1,6-naphthyridin-5-yl}-1H-pyrazol-1-yl)-1-(2,2,2-trifluoroethyl)azetidin-3-yl]acetonitrile] | 312 nM | 6460 nM |  | > 10000 nM |  |  |  |  |
| CC(=O)N(C)C1CC(CC#N)(n2ccc(-c3nc(-c4cc[nH]n4)cc4ncccc34)n2)C1 (stereo not drawn) [Example 33, N-[trans-3-(cyanomethyl)-3-{3-[7-(1H-pyrazol-3-yl)-1,6-naphthyridin-5-yl]-pyrazol-1-yl}cyclobutyl]-N-methylacetamide] | 850 nM | 5700 nM |  | > 10000 nM |  |  |  |  |
| Cn1cc(-c2cc(-c3ccn(C4(CC#N)CN(CC(F)(F)F)C4)n3)n3ccnc3c2)cn1 [Example 472, [3-{3-[7-(1-methyl-1H-pyrazol-4-yl)imidazo[1,2-a]pyridin-5-yl]-1H-pyrazol-1-yl}-1-(2,2,2-trifluoroethyl)azetidin-3-yl]acetonitrile] |  |  |  |  | 5670 nM | > 10000 nM |  | > 10000 nM |
| Cn1ncc(-c2cc(-c3cnn([C@]4(CC#N)C[C@@H](C#N)C4)n3)c3cccnc3c2)c1CO [Example 328, trans-3-(cyanomethyl)-3-(4-{7-[5-(hydroxymethyl)-1-methyl-1H-pyrazol-4-yl]quinolin-5-yl}-2H-1,2,3-triazol-2-yl)cyclobutanecarbonitrile] | 1290 nM | > 10000 nM |  | > 10000 nM |  |  |  |  |
| N#CC[C@]1(n2ncc(-c3cc(-c4cccc(C(N)=O)n4)cc4ncccc34)n2)C[C@H](C#N)C1 [Example 350, 6-(5-{2-[cis-3-cyano-1-(cyanomethyl)cyclobutyl]-2H-1,2,3-triazol-4-yl}quinolin-7-yl)pyridine-2-carboxamide] | 7 nM | 97 nM |  | 2470 nM |  |  |  |  |
| Cn1nccc1C1CC(CC#N)(n2ccc(-c3nc(-c4cn[nH]c4)cc4ncccc34)n2)C1 (stereo not drawn) [Example 86, [cis-3-(1-methyl-1H-pyrazol-5-yl)-1-{3-[7-(1H-pyrazol-4-yl)-1,6-naphthyridin-5-yl]-1H-pyrazol-1-yl}cyclobutyl]acetonitrile] | 430 nM | 2410 nM |  | > 10000 nM |  |  |  |  |
| N#CC[C@]1(n2ncc(-c3cc(-c4cnc(N)nc4)cc4ncccc34)n2)C[C@@H](C#N)C1 [Example 394, cis-3-{4-[7-(2-aminopyrimidin-5-yl)quinolin-5-yl]-2H-1,2,3-triazol-2-yl}-3-(cyanomethyl)cyclobutanecarbonitrile] |  |  |  |  | 1030 nM | 8560 nM |  | > 10000 nM |

Results, then the compound that gave them:

| IC50 (TYK2) | IC50 (JAK1) | IC50 (JAK2) | IC50 (JAK3) | IC50 (TYK2; JAK Caliper enzyme assay) | IC50 (JAK1; JAK Caliper enzyme assay) | IC50 (JAK2; JAK Caliper enzyme assay) | IC50 (JAK3; JAK Caliper enzyme assay) | SMILES |
| --- | --- | --- | --- | --- | --- | --- | --- | --- |
| 94 nM | 2100 nM | 940 nM | > 10000 nM |  |  |  |  | CCN1CC(CC#N)(n2ccc(-c3nc(-c4c[nH]nc4N)cc4ncccc34)n2)C1 [Example 94, (3-{3-[7-(3-amino-1H-pyrazol-4-yl)-1,6-naphthyridin-5-yl]-1H-pyrazol-1-yl}-1-ethylazetidin-3-yl)acetonitrile] |
| 8 nM | 326 nM | 32 nM | 3580 nM |  |  |  |  | Cc1nc(-c2cc(-c3cnn([C@]4(CC#N)C[C@H](C#N)C4)n3)c3cccnc3c2)c[nH]1 [Example 336, cis-3-(cyanomethyl)-3-{4-[7-(2-methyl-1H-imidazol-4-yl)quinolin-5-yl]-2H-1,2,3-triazol-2-yl}cyclobutanecarbonitrile] |
| 5 nM | 256 nM | 77 nM | 8030 nM |  |  |  |  | N#CC[C@]1(n2ncc(-c3cc(-c4cn[nH]c4N)cc4ncccc34)n2)C[C@@H](C#N)C1 [Example 320, cis-3-{4-[7-(5-amino-1H-pyrazol-4-yl)quinolin-5-yl]-2H-1,2,3-triazol-2-yl}-3-(cyanomethyl)cyclobutanecarbonitrile] |
| 23 nM | 594 nM |  | > 10000 nM |  |  |  |  | CS(=O)(=O)N1CC(CC#N)(n2ncc(-c3cc(-c4cc[nH]n4)cc4ncccc34)n2)C1 [Example 298, [1-(methylsulfonyl)-3-{4-[7-(1H-pyrazol-3-yl)quinolin-5-yl]-2H-1,2,3-triazol-2-yl}azetidin-3-yl]acetonitrile] |
| 15 nM | 365 nM |  | > 10000 nM |  |  |  |  | COc1nc(-c2cc3ncccc3c(-c3ccn([C@]4(CC#N)C[C@H](C#N)C4)n3)n2)ccc1N [Example 223, cis-3-{3-[7-(5-amino-6-methoxypyridin-2-yl)-1,6-naphthyridin-5-yl]-1H-pyrazol-1-yl}-3-(cyanomethyl)cyclobutanecarbonitrile] |
| 73 nM | 2040 nM |  | > 10000 nM |  |  |  |  | Cn1cc(-c2cc3ncccc3c(-c3ccn(C4(CC#N)CN(CC5CC5)C4)n3)n2)cn1 [Example 101, [1-(cyclopropylmethyl)-3-{3-[7-(1-methyl-1H-pyrazol-4-yl)-1,6-naphthyridin-5-yl]-1H-pyrazol-1-yl}azetidin-3-yl]acetonitrile] |
| 7 nM | 155 nM |  | 2500 nM |  |  |  |  | Cn1nc(-c2cc3ncccc3c(-c3ccn([C@]4(CC#N)C[C@H](C#N)C4)n3)n2)cc1N [Example 66, cis-3-{3-[7-(5-amino-1-methyl-1H-pyrazol-3-yl)-1,6-naphthyridin-5-yl]-1H-pyrazol-1-yl}-3-(cyanomethyl)cyclobutanecarbonitrile] |
| 89 nM | 189 nM |  | > 10000 nM |  |  |  |  | N#CC[C@]1(n2cc(-c3nc(-c4cnn(CCO)c4)cc4ncccc34)cn2)C[C@H](C#N)C1 [Example 7, trans-3-(cyanomethyl)-3-(4-{7-[1-(2-hydroxyethyl)-1H-pyrazol-4-yl]-1,6-naphthyridin-5-yl}-1H-pyrazol-1-yl)cyclobutanecarbonitrile] |
| 11 nM | 12 nM |  | 454 nM |  |  |  |  | CS(=O)(=O)Nc1ccc(-c2cc3ncccc3c(-c3ccn([C@]4(CC#N)C[C@@H](C#N)C4)n3)n2)cc1 [Example 256, N-[4-(5-{1-[cis-3-cyano-1-(cyanomethyl)cyclobutyl]-1H-pyrazol-3-yl}-1,6-naphthyridin-7-yl)phenyl]methanesulfonamide] |
| 42 nM | 3740 nM |  | > 10000 nM |  |  |  |  | CS(=O)(=O)N1CC(CC#N)(n2ccc(-c3nc(-c4cccc(O)n4)cc4ncccc34)n2)C1 [Example 180, [3-{3-[7-(6-hydroxypyridin-2-yl)-1,6-naphthyridin-5-yl]-1H-pyrazol-1-yl}-1-(methylsulfonyl)azetidin-3-yl]acetonitrile] |
| 251 nM | 1630 nM |  | > 10000 nM |  |  |  |  | C=C(CO)n1cc(-c2cc3ncccc3c(-c3ccn(C4(CC#N)CN(S(C)(=O)=O)C4)n3)n2)cn1 [Example 131, [3-(3-{7-[1-(3-hydroxyprop-1-en-2-yl)-1H-pyrazol-4-yl]-1,6-naphthyridin-5-yl}-1H-pyrazol-1-yl)-1-(methylsulfonyl)azetidin-3-yl]acetonitrile] |
| 20 nM | 451 nM |  | > 10000 nM |  |  |  |  | N#CCC1(n2ccc(-c3nc(-c4ccn[nH]4)cc4ncccc34)n2)CN(S(=O)(=O)C2CC2)C1 [Example 18, [1-(cyclopropylsulfonyl)-3-{3-[7-(1H-pyrazol-5-yl)-1,6-naphthyridin-5-yl]-1H-pyrazol-1-yl}azetidin-3-yl]acetonitrile] |
| 76 nM | 1670 nM |  | > 10000 nM |  |  |  |  | CS(=O)(=O)N1CC(CC#N)(n2ccc(-c3nc(-c4cnn(CC5(O)COC5)c4)cc4ncccc34)n2)C1 [Example 133, {3-[3-(7-{1-[(3-hydroxyoxetan-3-yl)methyl]-1H-pyrazol-4-yl}-1,6-naphthyridin-5-yl)-1H-pyrazol-1-yl]-1-(methylsulfonyl)azetidin-3-yl}acetonitrile] |

From patent US11254668B2, “Pyrazolo[1,5-A]pyrazin-4-yl and related derivatives” (Pfizer Inc., priority 2017, dated 2022)
